Reference: ChEMBL document CHEMBL1130668, “Synthesis and evaluation of paclitaxel C7 derivatives: solution phase synthesis of combinatorial libraries” (1998)
Calls of active or inactive are those of the source. No cut-off for these calls is given here.

Assays:
MCF7 [1] = experiment: Effect on microtubule assembly in MCF-7 cells, compared to paclitaxel (0.3 uM), given as ratio of respective ED50; assay type: functional, Homo sapiens
[2] = Cytotoxicity activity was measured against human breast cancer cell line MCF-7 with respect to ED50 of paclitaxel (2 nM); assay type: functional, MCF7
[3] = Cytotoxicity activity was measured against resistant human breast cancer cell line MCF-7 with respect to ED50 of paclitaxel (2200-3700 nM); assay type: functional, MCF7
MCF7 [4] = experiment: Cytotoxicity activity was measured against resistant human breast cancer cell line MCF-7; Did not inhibit proliferation at maximum concentration tested; assay type: functional; settings: read-out: ED50 (the source's name)
MCF7 [5] = experiment: Cytotoxicity activity was measured against human breast cancer cell line MCF-7; Did not inhibit proliferation at maximum concentration tested; assay type: functional; settings: read-out: ED50 (the source's name)
MCF7 [6] = experiment: Cytotoxicity activity was measured against human breast cancer cell line MCF-7 with respect to ED50 of paclitaxel (2 nM); IA inactive; assay type: functional, cell-based
MCF7 [7] = experiment: Cytotoxicity activity was measured against resistant human breast cancer cell line MCF-7 with respect to ED50 of paclitaxel (2200-3700 nM); IA inactive; assay type: functional, cell-based
[8] = Ratio in tubulin to that of paclitaxel (0.3 uM) in microtubule assembly assay; IA inactive; assay type: functional

## CC(=O)O[C@H]1C(=O)[C@]2(C)[C@@H](OC(=O)c3ccccc3)C[C@H]3OC[C@@]3(OC(C)=O)[C@H]2[C@H](OC(=O)c2ccccc2)[C@]2(O)C[C@H](OC(=O)[C@H](O)[C@@H](NC(=O)c3ccccc3)c3ccccc3)C(C)=C1C2(C)C [PACLITAXEL C7 BENZOIC ACID ESTER]
MCF7 [1]
  Ratio: 8.3
[2]
  Ratio: 14
[3]
  Ratio: 1.1

## CC(=O)O[C@H]1C(=O)[C@]2(C)[C@@H](OC(=O)c3ccc([N+](=O)[O-])o3)C[C@H]3OC[C@@]3(OC(C)=O)[C@H]2[C@H](OC(=O)c2ccccc2)[C@]2(O)C[C@H](OC(=O)[C@H](O)[C@@H](NC(=O)c3ccccc3)c3ccccc3)C(C)=C1C2(C)C
MCF7 [4]
  EC50: > 5000 nM
MCF7 [1]
  Ratio: 8.7
[2]
  Ratio: 12

## CC(=O)O[C@H]1C(=O)[C@]2(C)[C@@H](OC(=O)C(C)(C)C)C[C@H]3OC[C@@]3(OC(C)=O)[C@H]2[C@H](OC(=O)c2ccccc2)[C@]2(O)C[C@H](OC(=O)[C@H](O)[C@@H](NC(=O)c3ccccc3)c3ccccc3)C(C)=C1C2(C)C [PACLITAXEL C7 TRIMETHYLACETIC ACID ESTER]
MCF7 [1]
  Ratio: 8.3
[2]
  Ratio: 3
[3]
  Ratio: 1.5

## CC(=O)O[C@H]1C(=O)[C@]2(C)[C@@H](OC(=O)c3ccsc3)C[C@H]3OC[C@@]3(OC(C)=O)[C@H]2[C@H](OC(=O)c2ccccc2)[C@]2(O)C[C@H](OC(=O)[C@H](O)[C@@H](NC(=O)c3ccccc3)c3ccccc3)C(C)=C1C2(C)C
MCF7 [5]
  EC50: > 80 nM
MCF7 [1]
  Ratio: 1.7
[3]
  Ratio: 1.3

## CCCCCCCCCCCCC(=O)O[C@H]1C[C@H]2OC[C@@]2(OC(C)=O)[C@H]2[C@H](OC(=O)c3ccccc3)[C@]3(O)C[C@H](OC(=O)[C@H](O)[C@@H](NC(=O)c4ccccc4)c4ccccc4)C(C)=C([C@@H](OC(C)=O)C(=O)[C@]12C)C3(C)C
MCF7 [6]
  ED50: inactive
MCF7 [7]
  ED50: inactive
[8]
  Ratio: inactive

## CC(=O)O[C@H]1C(=O)[C@]2(C)[C@@H](OC(=O)c3cnc(Cl)c(Cl)c3)C[C@H]3OC[C@@]3(OC(C)=O)[C@H]2[C@H](OC(=O)c2ccccc2)[C@]2(O)C[C@H](OC(=O)[C@H](O)[C@@H](NC(=O)c3ccccc3)c3ccccc3)C(C)=C1C2(C)C
MCF7 [6]
  ED50: inactive
MCF7 [7]
  ED50: inactive
[8]
  Ratio: inactive

## CC(=O)O[C@H]1C(=O)[C@]2(C)[C@@H](OC(=O)c3ccco3)C[C@H]3OC[C@@]3(OC(C)=O)[C@H]2[C@H](OC(=O)c2ccccc2)[C@]2(O)C[C@H](OC(=O)[C@H](O)[C@@H](NC(=O)c3ccccc3)c3ccccc3)C(C)=C1C2(C)C
MCF7 [1]
  Ratio: 22
[2]
  Ratio: 27
[3]
  Ratio: 1

## CC(=O)O[C@H]1C(=O)[C@]2(C)[C@@H](OC(C)=O)C[C@H]3OC[C@@]3(OC(C)=O)[C@H]2[C@H](OC(=O)c2ccccc2)[C@]2(O)C[C@H](OC(=O)[C@H](O)[C@@H](NC(=O)c3ccccc3)c3ccccc3)C(C)=C1C2(C)C [PACLITAXEL C7 ACETYLCARBOXYLIC ACID ESTER]
MCF7 [1]
  Ratio: 0.7
[2]
  Ratio: 8
[3]
  Ratio: 0.7

## COc1ccc(C(=O)O[C@H]2C[C@H]3OC[C@@]3(OC(C)=O)[C@H]3[C@H](OC(=O)c4ccccc4)[C@]4(O)C[C@H](OC(=O)[C@H](O)[C@@H](NC(=O)c5ccccc5)c5ccccc5)C(C)=C([C@@H](OC(C)=O)C(=O)[C@]23C)C4(C)C)cc1
MCF7 [5]
  EC50: > 80 nM
MCF7 [1]
  Ratio: 22
[3]
  Ratio: 2.2

## CC(=O)O[C@H]1C(=O)[C@]2(C)[C@@H](OC(=O)C3CC3)C[C@H]3OC[C@@]3(OC(C)=O)[C@H]2[C@H](OC(=O)c2ccccc2)[C@]2(O)C[C@H](OC(=O)[C@H](O)[C@@H](NC(=O)c3ccccc3)c3ccccc3)C(C)=C1C2(C)C [PACLITAXEL C7 CYCLOPROPANECARBOXYLIC ACID ESTER]
MCF7 [4]
  EC50: > 5000 nM
MCF7 [1]
  Ratio: 22
[2]
  Ratio: 35

## COCC(=O)O[C@H]1C[C@H]2OC[C@@]2(OC(C)=O)[C@H]2[C@H](OC(=O)c3ccccc3)[C@]3(O)C[C@H](OC(=O)[C@H](O)[C@@H](NC(=O)c4ccccc4)c4ccccc4)C(C)=C([C@@H](OC(C)=O)C(=O)[C@]12C)C3(C)C [PACLITAXEL C7 METHOXYACETIC ACID ESTER]
MCF7 [1]
  Ratio: 1
[2]
  Ratio: 14
[3]
  Ratio: 1.3

## CC(=O)O[C@H]1C(=O)[C@]2(C)[C@@H](OC(=O)c3cccnc3C)C[C@H]3OC[C@@]3(OC(C)=O)[C@H]2[C@H](OC(=O)c2ccccc2)[C@]2(O)C[C@H](OC(=O)[C@H](O)[C@@H](NC(=O)c3ccccc3)c3ccccc3)C(C)=C1C2(C)C
MCF7 [5]
  EC50: > 80 nM
MCF7 [4]
  EC50: > 5000 nM
MCF7 [1]
  Ratio: 32

## CCCCC(=O)O[C@H]1C[C@H]2OC[C@@]2(OC(C)=O)[C@H]2[C@H](OC(=O)c3ccccc3)[C@]3(O)C[C@H](OC(=O)[C@H](O)[C@@H](NC(=O)c4ccccc4)c4ccccc4)C(C)=C([C@@H](OC(C)=O)C(=O)[C@]12C)C3(C)C [PACLITAXEL C7 VALERIC ACID ESTER]
MCF7 [1]
  Ratio: 0.7
[2]
  Ratio: 10
[3]
  Ratio: 0.4

## CC(=O)OCC(=O)O[C@H]1C[C@H]2OC[C@@]2(OC(C)=O)[C@H]2[C@H](OC(=O)c3ccccc3)[C@]3(O)C[C@H](OC(=O)[C@H](O)[C@@H](NC(=O)c4ccccc4)c4ccccc4)C(C)=C([C@@H](OC(C)=O)C(=O)[C@]12C)C3(C)C [PACLITAXEL C7 ACETOXYACETIC ACID ESTER]
MCF7 [1]
  Ratio: 1.7
[2]
  Ratio: 17
[3]
  Ratio: 1.8

## CC(=O)O[C@H]1C(=O)[C@]2(C)[C@@H](OC(=O)c3ccc4ccccc4c3)C[C@H]3OC[C@@]3(OC(C)=O)[C@H]2[C@H](OC(=O)c2ccccc2)[C@]2(O)C[C@H](OC(=O)[C@H](O)[C@@H](NC(=O)c3ccccc3)c3ccccc3)C(C)=C1C2(C)C
MCF7 [5]
  EC50: > 80 nM
MCF7 [4]
  EC50: > 5000 nM
MCF7 [1]
  Ratio: 60

## CC(=O)O[C@H]1C(=O)[C@]2(C)[C@@H](OC(=O)c3cccn3C)C[C@H]3OC[C@@]3(OC(C)=O)[C@H]2[C@H](OC(=O)c2ccccc2)[C@]2(O)C[C@H](OC(=O)[C@H](O)[C@@H](NC(=O)c3ccccc3)c3ccccc3)C(C)=C1C2(C)C
MCF7 [5]
  EC50: > 80 nM
MCF7 [1]
  Ratio: 8.3
[3]
  Ratio: 1.2

## C/C=C/C(=O)O[C@H]1C[C@H]2OC[C@@]2(OC(C)=O)[C@H]2[C@H](OC(=O)c3ccccc3)[C@]3(O)C[C@H](OC(=O)[C@H](O)[C@@H](NC(=O)c4ccccc4)c4ccccc4)C(C)=C([C@@H](OC(C)=O)C(=O)[C@]12C)C3(C)C [PACLITAXEL C7 CROTONIC ACID ESTER]
MCF7 [5]
  EC50: > 80 nM
MCF7 [4]
  EC50: > 5000 nM
MCF7 [1]
  Ratio: 6.7

## CSCC(=O)O[C@H]1C[C@H]2OC[C@@]2(OC(C)=O)[C@H]2[C@H](OC(=O)c3ccccc3)[C@]3(O)C[C@H](OC(=O)[C@H](O)[C@@H](NC(=O)c4ccccc4)c4ccccc4)C(C)=C([C@@H](OC(C)=O)C(=O)[C@]12C)C3(C)C [PACLITAXEL C7 METHYLTHIOACETIC ACID ESTER]
MCF7 [1]
  Ratio: 0.7
[2]
  Ratio: 10
[3]
  Ratio: 0.5

## CC(=O)O[C@H]1C(=O)[C@]2(C)[C@@H](OC(=O)CC#N)C[C@H]3OC[C@@]3(OC(C)=O)[C@H]2[C@H](OC(=O)c2ccccc2)[C@]2(O)C[C@H](OC(=O)[C@H](O)[C@@H](NC(=O)c3ccccc3)c3ccccc3)C(C)=C1C2(C)C [PACLITAXEL C7 CYANOACETIC ACID ESTER]
MCF7 [5]
  EC50: > 5000 nM
MCF7 [1]
  Ratio: 1.3
[2]
  Ratio: 8

## CC(=O)O[C@H]1C(=O)[C@]2(C)[C@@H](OC(=O)c3ccc(Cl)cc3)C[C@H]3OC[C@@]3(OC(C)=O)[C@H]2[C@H](OC(=O)c2ccccc2)[C@]2(O)C[C@H](OC(=O)[C@H](O)[C@@H](NC(=O)c3ccccc3)c3ccccc3)C(C)=C1C2(C)C
MCF7 [5]
  EC50: > 80 nM
MCF7 [1]
  Ratio: 13
[3]
  Ratio: 1.6

## CC(=O)O[C@H]1C(=O)[C@]2(C)[C@@H](OC(=O)CCCNC(=O)OC(C)(C)C)C[C@H]3OC[C@@]3(OC(C)=O)[C@H]2[C@H](OC(=O)c2ccccc2)[C@]2(O)C[C@H](OC(=O)[C@H](O)[C@@H](NC(=O)c3ccccc3)c3ccccc3)C(C)=C1C2(C)C
MCF7 [5]
  EC50: > 80 nM
MCF7 [4]
  EC50: > 5000 nM
MCF7 [1]
  Ratio: 0.7

## CC(=O)O[C@H]1C(=O)[C@]2(C)[C@@H](OC(=O)c3ccc(C)cc3)C[C@H]3OC[C@@]3(OC(C)=O)[C@H]2[C@H](OC(=O)c2ccccc2)[C@]2(O)C[C@H](OC(=O)[C@H](O)[C@@H](NC(=O)c3ccccc3)c3ccccc3)C(C)=C1C2(C)C
MCF7 [1]
  Ratio: 25
[2]
  Ratio: 31
[3]
  Ratio: 0.9

## CC(=O)O[C@H]1C(=O)[C@]2(C)[C@@H](OC(=O)/C=C/Cl)C[C@H]3OC[C@@]3(OC(C)=O)[C@H]2[C@H](OC(=O)c2ccccc2)[C@]2(O)C[C@H](OC(=O)[C@H](O)[C@@H](NC(=O)c3ccccc3)c3ccccc3)C(C)=C1C2(C)C
MCF7 [5]
  EC50: > 80 nM
MCF7 [4]
  EC50: > 5000 nM
MCF7 [1]
  Ratio: 5.3

## CC(=O)O[C@H]1C(=O)[C@]2(C)[C@@H](OC(=O)c3ccc(Cl)c(Cl)c3)C[C@H]3OC[C@@]3(OC(C)=O)[C@H]2[C@H](OC(=O)c2ccccc2)[C@]2(O)C[C@H](OC(=O)[C@H](O)[C@@H](NC(=O)c3ccccc3)c3ccccc3)C(C)=C1C2(C)C
MCF7 [5]
  EC50: > 80 nM
MCF7 [4]
  EC50: > 5000 nM
MCF7 [1]
  Ratio: 24

## CC(=O)O[C@H]1C(=O)[C@]2(C)[C@@H](OC(=O)C3CCCC3)C[C@H]3OC[C@@]3(OC(C)=O)[C@H]2[C@H](OC(=O)c2ccccc2)[C@]2(O)C[C@H](OC(=O)[C@H](O)[C@@H](NC(=O)c3ccccc3)c3ccccc3)C(C)=C1C2(C)C [PACLITAXEL C7 CYCLOPENTANECARBOXYLIC ACID ESTER]
MCF7 [1]
  Ratio: 1
[2]
  Ratio: 37
[3]
  Ratio: 1.3
